Values quoted from earlier work, collected in patent US20060057620A1, “Treatment of HIV infection” (priority 2004, published 2006).

System: circulating T-cells
Conditions: FIG. 1

## alemtuzumab
After a single dose
  time to full recovery of T-cells: ≥ 3 months
Single dose
  killing of circulating T-cells (T-cell depletion): able to kill all circulating T-cells
